Reference: PubChem BioAssay AID2305 (GlaxoSmithKline (GSK), 2010)

Test system: P. falciparum 3D7 growth, pLDH absorbance
Assay: blood-stage malaria parasite growth potency – strain 3D7, dose response (AID 2305)

For COc1cccc2cc(C(=O)N[C@@H](CC(C)C)C(=O)N[C@H](/C=N/NC(=O)OC(C)(C)C)CC(=O)OC(C)(C)C)oc12, the IC50 was 400 nM.
Compound COc1ccc(CNCc2ccc(-c3ccc(-c4nc5c(C)cccc5[nH]4)cc3)cc2)cc1 has an IC50 of 340 nM.
COc1ccc2nc3cc(Cl)ccc3c(NCCN(C)C)c2c1 gave an IC50 of 190 nM.
With CCOC(=O)c1[nH]c2ccc(F)cc2c1NC(=O)CN1CCN(c2cccc(C(F)(F)F)c2)CC1 the IC50 was 460 nM.
C(=NNc1cc(-c2ccccc2)nc2ccccc12)c1cccnc1 gave an IC50 of 1230 nM.
Compound O=C(NC12CC3CC(CC(C3)C1)C2)C(=O)c1c[nH]c2ccccc12 has an IC50 of 230 nM.
Work on CCc1ccc(N2C(=O)C3C(Cc4ccc(OC(C)(C)C)cc4)NC4(C(=O)N(Cc5ccccc5)c5ccc(F)cc54)C3C2=O)cc1 (stereo unspecified) yielded an IC50 of 800 nM.
COc1ccccc1-c1ccc(CNC(=O)C(CN2CCN(C)CC2)c2ccccc2)cc1 (stereo unspecified) showed an IC50 of 1260 nM.
With O=C(NCCCCCN1CCC(c2c[nH]c3ccccc23)CC1)c1ccc(-c2cccnc2)cc1 the IC50 was 1030 nM.
In the case of CCOC(=O)c1ccc(NC(=O)Nc2cccc(-c3cccc(-c4nc5ccccc5[nH]4)c3)c2)cc1, the IC50 is reported as 70 nM.
Compound CC(C)C(C(=O)n1ncc2c3c(N)nc(N)nc3ccc21)C(C)C has an IC50 of 650 nM.
Compound O=C(Nc1ccccc1Cl)N(Cc1cc(Cl)cc(Cl)c1)CC(O)COc1ccc(Cl)c(F)c1 (stereo unspecified) has an IC50 of 790 nM.
CC(C)N1CCC(N(Cc2ccc(-c3ccc(C(F)(F)F)cc3)cc2)C(=O)Cn2c(CCc3cccc(F)c3F)cc(=O)c3cn(C)nc32)CC1 was tested, and the IC50 was 1170 nM.
In the case of O=c1[nH]c2c(cc1CNC1CCCCC1)c(-c1ccc(F)cc1)nn2-c1ccccc1, the IC50 is reported as 800 nM.
In the case of CN1CCN(c2ccnc3ccc(NC(=O)Nc4ccc(Cl)cc4)cc23)CC1, the IC50 is reported as 110 nM.
Compound N#Cc1ccc(-c2ccc(C(=O)NCCCCN3CCC(c4ccc5c(c4OCC(N)=O)CCCC5)CC3)nc2)cc1 has an IC50 of 730 nM.
Work on O=C(C=Cc1ccc(Cl)c(Cl)c1)NCCCCCN1CCC(CCNS(=O)(=O)c2ccc(F)cc2)CC1 yielded an IC50 of 1090 nM.
For Cc1[nH]c(C)c(-c2ccc(Oc3cccc(OC(F)(F)F)c3)cc2)c(=O)c1Cl, the IC50 was 680 nM.
CC(C)NC[C@@H](O)[C@H](Cc1ccccc1)NC(=O)c1cc2c3c(c1)c(C(C)C)cn3CCS(=O)(=O)N2C showed an IC50 of 180 nM.
For O=C(Nc1ccc(OC2CCN(Cc3ccc(F)cc3)C2)c(Cl)c1)c1ccoc1 (stereo unspecified), the IC50 was 940 nM.
COc1ccc(-c2cnc(NCc3ccccc3)nc2)cc1CNC1CCN(C)CC1 was tested, and the IC50 was 780 nM.
With Cc1cc2c3c(N)nc(N)nc3ccc2n1C(C)C the IC50 was 10 nM.
CCN(CC)CCN(CCCc1ccc(-c2ccc(C(F)(F)F)cc2)cc1)C(=O)Cn1c(CCc2cccc(F)c2F)nc(=O)c2c1CCC2 gave an IC50 of 830 nM.
Cc1ccc(Nc2nccc(Nc3ccc4c(C)[nH]nc4c3)n2)cc1F showed an IC50 of 780 nM.
Cc1c(CNCCCNc2nc3ccccc3[nH]2)[nH]c2cc(Cl)cc(Cl)c12 was tested, and the IC50 was 230 nM.
O=C(Nc1cccc(CN2CCCN(CC3CCCCC3)CC2)c1)c1ccc(Cl)c(Cl)c1 gave an IC50 of 960 nM.
CC(C)CNCc1cccc(-c2ccccc2CN(C(=O)Nc2ccccc2)C2CCN(Cc3ccccc3)CC2)c1 gave an IC50 of 640 nM.
CCOC(=O)c1ccc(-c2cnc(N)c(-c3nc4c(C)cccc4[nH]3)c2)cc1 was tested, and the IC50 was 280 nM.
Work on CN(Cc1ccccc1)C1CCCN(c2cc(NC(=O)c3cccs3)ccn2)C1 (stereo unspecified) yielded an IC50 of 1130 nM.
Work on O=C(c1ccco1)N1CCN(c2nc(-c3ccc(Cl)cc3)nc3ccccc23)CC1 yielded an IC50 of 930 nM.
Compound CS(=O)(=O)c1cccc(-c2cnc(N)c3cc(-c4cccc(F)c4)ccc23)c1 has an IC50 of 860 nM.
COc1ccc(C(=O)[C@H]2C[C@@H]2CN(C)CCC(O)c2ccc(Cl)c(Cl)c2)cc1 (stereo partly specified) was tested, and the IC50 was 870 nM.
COc1cccc(OCC2CCCN(CCCCNC(=O)c3ccc(NC(=O)c4ccc(Cl)cc4)cc3)C2)c1 (stereo unspecified) was tested, and the IC50 was 750 nM.
COc1ccc2nccc([C@@H](O)CN3CCC(NCCOc4cccc(F)c4F)CC3)c2c1 gave an IC50 of 240 nM.
Compound O=C(/C=C/c1ccc(Cl)c(Cl)c1)NCCCCCN1CCN(C(=O)Nc2cccc(F)c2)CC1 has an IC50 of 870 nM.
O=C(Nc1ccc(Cl)c(C(F)(F)F)c1)c1ccc(Cl)c([N+](=O)[O-])c1 was tested, and the IC50 was 1120 nM.
CCN(CC)CCOC(=O)c1ccc(NC(=O)c2cn(-c3ccccc3)nc2-c2cccs2)cc1 gave an IC50 of 380 nM.
With Cc1ccc(N(CCC(=N)N)Cc2ccccc2)cc1 the IC50 was 660 nM.
For Cc1ccc(NC(=O)Cc2noc(CC3CCCN3C(=O)N[C@@H](C)c3ccccc3)n2)cc1 (stereo partly specified), the IC50 was 370 nM.
For Cc1ccc(Nc2nccc(NCC(O)c3ccc(C(F)(F)F)cc3)n2)cc1 (stereo unspecified), the IC50 was 490 nM.
Cc1ccc2[nH]c(-c3ccccc3N)cc2c1 gave an IC50 of 920 nM.
With Oc1ccc(Br)cc1C(O)CNCc1ccccc1OCc1ccccc1 (stereo unspecified) the IC50 was 170 nM.
For FC(F)(F)Oc1cccc(CNc2noc(-c3sccc3Br)n2)c1, the IC50 was 880 nM.
In the case of CCN(CC)S(=O)(=O)c1cc(-c2ccc(=O)n(CC(=O)c3ccc(C)cc3)n2)ccc1C, the IC50 is reported as 890 nM.
In the case of Cc1[nH]c(C)c(-c2ccc(OCc3ccccc3C(F)(F)F)nc2)c(=O)c1Br, the IC50 is reported as 20 nM.
In the case of CC(C)c1ccc2c(c1)c(SC(C)(C)C)c(CC(C)(C)C#N)n2Cc1ccc(Cl)cc1, the IC50 is reported as 220 nM.
In the case of COc1cc(C(=O)Nc2cccc(-c3nc4ccccc4[nH]3)c2)ccc1OC(C)=O, the IC50 is reported as 760 nM.
With CCC(C)NS(=O)(=O)c1ccc2nc(Nc3cccc(SC)c3)n(C(C)C(C)C)c2c1 (stereo unspecified) the IC50 was 500 nM.
CC(C)(C)c1ccc(NC(=O)c2ccc(CN3CCCN(Cc4cccc(F)c4)CC3)cc2)cc1 gave an IC50 of 1120 nM.
For NCC1CCCN1Cc1ccc(-c2cccc(-c3nc4ccc(F)cc4[nH]3)c2)cc1 (stereo unspecified), the IC50 was 750 nM.
With CC(C)N1CCN(c2ccc(OCCCCN3CCN(c4cccc(Cl)c4Cl)CC3)c(C(F)(F)F)c2)CC1 the IC50 was 820 nM.
Cc1[nH]c(C)c(-c2ccc(-c3ccc(OC(F)(F)F)cc3)nc2)c(=O)c1Br gave an IC50 of 250 nM.
Work on O=C(Nc1cccc(F)c1)N1CCC(CN2CCOC(c3ccccc3)(c3ccccc3)C2)CC1 yielded an IC50 of 200 nM.
CN(CCON1C(N)=NC(N)=NC1(C)C)c1ccccc1 showed an IC50 of 20 nM.
O=C(Cc1cnc[nH]1)Nc1cccc(-c2ccc(-c3nc4ccccc4[nH]3)cc2)c1 gave an IC50 of 760 nM.
With O=C(Nc1ccc(-c2cccc(-c3nc4ccc(C(F)(F)F)cc4[nH]3)c2)cc1)c1ccoc1 the IC50 was 830 nM.
Work on Nc1cc(C=Cc2ccc([N+](=O)[O-])o2)nc2ccccc12 yielded an IC50 of 370 nM.
Oc1cccc(-c2nc(-c3cccc(I)c3)c(-c3ccc(-c4nc(-c5cccc(O)c5)[nH]c4-c4cccc(I)c4)cc3)[nH]2)c1 gave an IC50 of 920 nM.
With Cc1cccc(-n2nc(C)c3c2NC(=O)CC3C(=O)c2ccc(Cl)s2)c1 (stereo unspecified) the IC50 was 470 nM.
With CC(C)(C)c1nn(-c2ccc(Cl)cc2)c2[nH]c(=O)c(CNC3CCCC3)cc12 the IC50 was 230 nM.
Compound COC(=O)c1ccccc1N1CCN(CCCCNC(=O)c2ccc(NC(=O)c3cc(Cl)cc(Cl)c3)cc2)CC1 has an IC50 of 560 nM.
Work on CC(C)(C)c1ccc(CN2CCC(CNC(=O)c3cc(-c4cccc(F)c4)cs3)C2)cc1 (stereo unspecified) yielded an IC50 of 900 nM.
Compound CN(C)Cc1ccc(-c2ccc3ccnc(N)c3c2)cc1 has an IC50 of 380 nM.
Cc1cc(N[C@@H](Cc2ccccc2)C(=O)NCCOc2ccccc2)nc(NCCc2cccs2)n1 was tested, and the IC50 was 1000 nM.
With Clc1ccc(Nc2nc3nonc3nc2Nc2ccc(Cl)c(Cl)c2)cc1 the IC50 was 650 nM.
In the case of CC(=O)Nc1ccc(OCCN(Cc2ccccc2C(F)(F)F)c2ccc(C#N)c(C(F)(F)F)c2)c(Cl)c1, the IC50 is reported as 620 nM.
O=C(/C=C/c1ccc(Cl)c(Cl)c1)NCCCCCN1CCCC(C(=O)Nc2cccc(Cl)c2)C1 (stereo unspecified) was tested, and the IC50 was 900 nM.
CCN1C(=O)C(CC(=O)Nc2cccc(Cl)c2)N(Cc2ccc(OC)c(OC)c2)C1=S (stereo unspecified) showed an IC50 of 610 nM.
CC(=O)c1ccc(S(=O)(=O)N2CCC(C(=O)Nc3ccccc3N3CCCC3)CC2)cc1 showed an IC50 of 830 nM.
In the case of CC(=O)c1ccc(-c2ccc(C(=O)NCCCCN3CCC(c4ccc5c(c4O)CCCC5)CC3)cc2)cc1, the IC50 is reported as 760 nM.
Work on O=C1OC(c2ccccc2)(c2ccccn2)CN1C1CCN(Cc2cccn2-c2ccc(Cl)cc2)CC1 (stereo unspecified) yielded an IC50 of 470 nM.
COc1cccc2cc(C(=O)N[C@@H](CC(C)C)C(=O)N[C@H](/C=N/NC(=O)c3ccccc3)Cc3cnc[nH]3)oc12 gave an IC50 of 130 nM.
With Cc1cc(-c2cccc3c(NC(=O)N4CCc5cc6nccc(N7CCN8CCC[C@H]8C7)c6cc54)cccc23)cc(C)n1 the IC50 was 490 nM.
With Cc1cc2nc(-c3ccc(OCC(=O)NCc4cccc(C(F)(F)F)c4)cc3)[nH]c2cc1C the IC50 was 990 nM.
Work on c1ccc(-c2ccc(-c3nc4ccccc4[nH]3)cc2)cc1 yielded an IC50 of 810 nM.
Work on Cc1noc(-c2ccc(N3CCC(C(=O)N4CCN(C(C)C)CC4)CC3)cc2)n1 yielded an IC50 of 1070 nM.
CCCCCCCCS(=O)(=O)NCCCC1CCN(CCCCCNC(=O)C=Cc2ccc(Cl)c(Cl)c2)CC1 was tested, and the IC50 was 860 nM.
CNC(=O)C1Cc2c([nH]c3c(C)cccc23)C2(N1)C(=O)Nc1ccc(OC(F)(F)F)cc12 (stereo unspecified) showed an IC50 of 460 nM.
In the case of FC(F)(F)c1cccc(-c2cc(NCCCn3ccnc3)nc(-c3ccncc3)n2)c1, the IC50 is reported as 110 nM.
COC(=O)c1sc(-c2ccc(Cl)cc2)cc1N(CCCN1CCC(N2CCCCC2)CC1)S(=O)(=O)c1ccc(C)cc1 showed an IC50 of 740 nM.
For COc1cc2nc(N3CCC(c4ccccc4)CC3)nc(NCc3ccc(=O)[nH]c3)c2cc1OC, the IC50 was 750 nM.
Work on CCCCCC(C)c1cc(O)c2c(c1)OC(C)(C)C=C2C1=CCN(Cc2ccccc2)CC1 (stereo unspecified) yielded an IC50 of 780 nM.
Compound CCc1nn2c(Nc3ccncc3)cc(C)nc2c1-c1ccccc1 has an IC50 of 200 nM.
Compound CN(C)CCC(O)(c1ccc(Br)cc1)c1cccnc1 (stereo unspecified) has an IC50 of 830 nM.
Cc1cccc(C(=O)Nc2ccnc(N(C)CCCN(C)Cc3cccc(O)c3)c2)c1 gave an IC50 of 970 nM.
CCCC(C)Nc1nc(C)cc(N[C@@H](CC(C)C)C(=O)NCCOc2ccccc2)n1 (stereo partly specified) was tested, and the IC50 was 1710 nM.
CC(C)(C)OC(=O)c1c(NC(=O)/C=C/c2ccc(O)c(O)c2)sc2c1CCCC2 was tested, and the IC50 was 820 nM.
In the case of O=C(/C=C/c1ccc(Cl)c(Cl)c1)NCCCCCN1CCC(NC(=O)Nc2cc(Cl)ccc2Cl)CC1, the IC50 is reported as 430 nM.
COc1ccc2nc(C)cc(NN=Cc3cc(OC)c(OC)cc3OC)c2c1 showed an IC50 of 740 nM.
Compound CCOc1cc(C)ccc1N1CCN(CCN2CCC(NC(=O)c3ccc(-c4ccc(C#N)cc4)cc3)CC2)CC1 has an IC50 of 1430 nM.
For COc1ccccc1-c1nc2c(ccc3nc(N)nc(N)c32)[nH]1, the IC50 was 180 nM.
For COC(=O)c1ccc(CC(C)NCC(O)c2cccc(C(F)(F)F)c2)c(OC)c1 (stereo unspecified), the IC50 was 800 nM.
Compound COc1cccc2c(NCc3ccccc3)nc(NCCCN3CCCCC3C)nc12 (stereo unspecified) has an IC50 of 910 nM.
For Cc1cc(N[C@@H](Cc2ccccc2)C(=O)NCc2cccc(F)c2)nc(NCCCOC(C)C)n1, the IC50 was 920 nM.
Compound CS(=O)(=O)NCCCNCc1ccc(-c2ccc(-c3nc4ccc(F)cc4[nH]3)cc2)cc1 has an IC50 of 930 nM.
In the case of COc1ccccc1C1CCN(CCCCNC(=O)c2ccc(NC(=O)c3ccc(Cl)cc3)cc2)CC1, the IC50 is reported as 240 nM.
